Structures can show the parent of a compound that is named as a salt.
Assay: not given
Conditions: background statement, no conditions given; cited from earlier work

Row | Compound | Hygroscopicity of known salts
1 | CC(=O)O[C@H](CC(=O)O)C[N+](C)(C)C.O=C([O-])/C=C/C(=O)O [acetyl L(−)-carnitine acid fumarate] | strongly hygroscopic
2 | L(−)-carnitine acid fumarate | non-hygroscopic
3 | C[N+](C)(C)C[C@H](O)CC(=O)O.C[N+](C)(C)C[C@H](O)CC(=O)O.O=C([O-])C(O)C(O)C(=O)[O-] [L(−)-carnitine tartrate] | non-hygroscopic

Assay: Hygroscopicity: increase in weight and appearance after exposure to humidity
Type: physicochemical
Conditions: exposure to 70±5% relative humidity, at 25° C. for 24 hours

Row | Compound | Appearance | Increase in weight (%)
4 | CC(=O)O[C@H](CC(=O)[O-])C[N+](C)(C)C [Acetyl-L-carnitine inner salt] | deliquescent | 19%
5 | CC(=O)O[C@H](CC(=O)O)C[N+](C)(C)C.[Cl-] [Acetyl-L-carnitine chloride] | clumped mass | 8%
6 | C[N+](C)(C)C[C@H](O)CC(=O)[O-] [L-carnitine inner salt] | deliquescent | 23%

From patent publication US6653504B1, “Non-hygroscopic salts of active ingredients having therapeutical and/or nutritional activities and orally administrable compositions containing same” (Sigma-Tau Industrie Farmaceutiche Riunite S.p.A., priority 1999, dated 2003)
